Measured values from PubChem BioAssay AID1918993 (Molecular Pharmacology Branch, DTP, NCI, 2023).
“And” between values parts separate entries of the source, which are not always exact repeats. Equal values may be shown once.

Test system: 233499-124-R-J3-PDC complex spheroid growth
Assay: Anticancer human tumor 233499-124-R-J3-PDC patient-derived colon adenocarcinoma cell line growth inhibition [AhR]
Details: for viability, T/C: stronger effect = lower value
Summary of the method: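 Agents were dosed in half-log steps down from roughly clinical Cmax, or from 10 microM where Cmax was unknown, alone and with AhR antagonists. Read-out: percent test/control growth of tumor spheroids containing HUVEC and MSC stromal cells.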

[1] = curve of first compound, second compound 0.1 µM
[2] = curve of first compound, second compound 0.316 µM
[3] = curve of first compound, second compound 1 µM
[4] = curve of first compound, second compound 3.16 µM
[5] = curve of first compound, second compound 10 µM
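Further: spheroids exposed to agents for seven days before reading.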

Q: `Nc1ncn(C2CC(O)C(CO)S2)c(=O)n1` (centres undefined) + Cc1ccccc1N=Nc1ccc(NC(=O)c2ccnn2C)c(C)c1 was tested. Which IC50 [1] did it give?
A: The IC50 was greater than 300 nM.

Q: What about the IC50 [2] of the same molecule?
A: The IC50 was greater than 300 nM.

Q: What about the IC50 [3] of the same molecule?
A: Its IC50 is greater than 300 nM.

Q: And the IC50 [4]?
A: Its IC50 is greater than 300 nM.

Q: And the IC50 [5]?
A: Its IC50 is greater than 300 nM.

Q: And the viability, T/C (second compound 0.1 µM, first compound 0.000949 µM)?
A: The viability, T/C was 91.9%.

Q: And the viability, T/C (second compound 0.1 µM, first compound 0.003 µM)?
A: Its viability, T/C is 103%.

Q: What about the viability, T/C (second compound 0.1 µM, first compound 0.00949 µM) of the same molecule?
A: The viability, T/C was 87.7%.

Q: What about the viability, T/C (second compound 0.1 µM, first compound 0.03 µM) of the same molecule?
A: The viability, T/C was 108%.

Q: And the viability, T/C (second compound 0.1 µM, first compound 0.0949 µM)?
A: The viability, T/C was 109%.

Q: What about the viability, T/C (second compound 0.1 µM, first compound 0.3 µM) of the same molecule?
A: Its viability, T/C is 111%.

Q: And the viability, T/C (second compound 0.316 µM, first compound 0.000949 µM)?
A: Its viability, T/C is 99.1%.

Q: And the viability, T/C (second compound 0.316 µM, first compound 0.003 µM)?
A: Its viability, T/C is 114%.

Q: And the viability, T/C (second compound 0.316 µM, first compound 0.00949 µM)?
A: The viability, T/C was 96.3%.

Q: And the viability, T/C (second compound 0.316 µM, first compound 0.03 µM)?
A: The viability, T/C was 107%.

Q: And the viability, T/C (second compound 0.316 µM, first compound 0.0949 µM)?
A: Its viability, T/C is 105%.

Q: And the viability, T/C (second compound 0.316 µM, first compound 0.3 µM)?
A: Its viability, T/C is 84.7%.

Q: And the viability, T/C (second compound 1 µM, first compound 0.000949 µM)?
A: The viability, T/C was 110%.

Q: And the viability, T/C (second compound 1 µM, first compound 0.003 µM)?
A: The viability, T/C was 114%.

Q: What about the viability, T/C (second compound 1 µM, first compound 0.00949 µM) of the same molecule?
A: The viability, T/C was 95%.

Q: And the viability, T/C (second compound 1 µM, first compound 0.03 µM)?
A: The viability, T/C was 114%.

Q: What about the viability, T/C (second compound 1 µM, first compound 0.0949 µM) of the same molecule?
A: The viability, T/C was 116%.

Q: What about the viability, T/C (second compound 1 µM, first compound 0.3 µM) of the same molecule?
A: The viability, T/C was 101%.

Q: And the viability, T/C (second compound 3.16 µM, first compound 0.000949 µM)?
A: The viability, T/C was 101%.

Q: What about the viability, T/C (second compound 3.16 µM, first compound 0.003 µM) of the same molecule?
A: The viability, T/C was 108%.

Q: What about the viability, T/C (second compound 3.16 µM, first compound 0.00949 µM) of the same molecule?
A: The viability, T/C was 107%.

Q: And the viability, T/C (second compound 3.16 µM, first compound 0.03 µM)?
A: The viability, T/C was 107%.

Q: And the viability, T/C (second compound 3.16 µM, first compound 0.0949 µM)?
A: Its viability, T/C is 109%.

Q: And the viability, T/C (second compound 3.16 µM, first compound 0.3 µM)?
A: The viability, T/C was 107%.

Q: And the viability, T/C (second compound 10 µM, first compound 0.000949 µM)?
A: The viability, T/C was 104%.

Q: And the viability, T/C (second compound 10 µM, first compound 0.003 µM)?
A: Its viability, T/C is 99.3%.

Q: And the viability, T/C (second compound 10 µM, first compound 0.00949 µM)?
A: The viability, T/C was 107%.

Q: What about the viability, T/C (second compound 10 µM, first compound 0.03 µM) of the same molecule?
A: The viability, T/C was 113%.

Q: And the viability, T/C (second compound 10 µM, first compound 0.0949 µM)?
A: Its viability, T/C is 94.8%.

Q: And the viability, T/C (second compound 10 µM, first compound 0.3 µM)?
A: The viability, T/C was 99.3%.

Q: Which viability, T/C (compound 0.00949 µM) does the source give for `CCN(c1cc(-c2ccc(CN3CCOCC3)cc2)cc(C(=O)NCc2c(C)cc(C)[nH]c2=O)c1C)C1CCOCC1` here?
A: The viability, T/C was 92.4% and 97.3% and 86.5%.

Q: What about the viability, T/C (compound 0.03 µM) of the same molecule?
A: The viability, T/C was 107% and 97% and 98%.

Q: What about the viability, T/C (compound 0.0949 µM) of the same molecule?
A: The viability, T/C was 96.5% and 90.3% and 94.9%.

Q: And the viability, T/C (compound 0.3 µM)?
A: Its viability, T/C is 103% and 96.3% and 91.4%.

Q: And the viability, T/C (compound 0.949 µM)?
A: Its viability, T/C is 102% and 109% and 100%.

Q: And the viability, T/C (compound 3 µM)?
A: The viability, T/C was 106% and 97.9% and 96.6%.

Q: What about the IC50 (curve of compound) of the same molecule?
A: Its IC50 is greater than 3000 nM.

Q: What does the source list for `Nc1ccn(C2OC(CO)C(O)C2(F)F)c(=O)n1` (centres undefined) + CC(CO)NC(=O)c1cc(-c2ccc(Cl)cc2)nn(-c2cnn(C)c2)c1=O?
A: IC50 [1]: 136 nM; IC50 [2]: 113 nM; IC50 [3]: 149 nM; IC50 [4]: 202 nM; IC50 [5]: 130 nM; viability, T/C (second compound 0.1 µM, first compound 0.0316 µM): 58.7%; viability, T/C (second compound 0.1 µM, first compound 0.1 µM): 58.9%; viability, T/C (second compound 0.1 µM, first compound 0.316 µM): 18.6%; viability, T/C (second compound 0.1 µM, first compound 1 µM): 30.1%; viability, T/C (second compound 0.1 µM, first compound 3.16 µM): 24.2%; viability, T/C (second compound 0.1 µM, first compound 10 µM): 29.7%; viability, T/C (second compound 0.316 µM, first compound 0.0316 µM): 50%; viability, T/C (second compound 0.316 µM, first compound 0.1 µM): 54%; viability, T/C (second compound 0.316 µM, first compound 0.316 µM): 33.6%; viability, T/C (second compound 0.316 µM, first compound 1 µM): 35%; viability, T/C (second compound 0.316 µM, first compound 3.16 µM): 29.3%; viability, T/C (second compound 0.316 µM, first compound 10 µM): 35.9%; viability, T/C (second compound 1 µM, first compound 0.0316 µM): 61%; viability, T/C (second compound 1 µM, first compound 0.1 µM): 57.8%; viability, T/C (second compound 1 µM, first compound 0.316 µM): 35.3%; viability, T/C (second compound 1 µM, first compound 1 µM): 37.7%; viability, T/C (second compound 1 µM, first compound 3.16 µM): 28.4%; viability, T/C (second compound 1 µM, first compound 10 µM): 36.1%; viability, T/C (second compound 3.16 µM, first compound 0.0316 µM): 65%; viability, T/C (second compound 3.16 µM, first compound 0.1 µM): 69.7%; viability, T/C (second compound 3.16 µM, first compound 0.316 µM): 38.9%; viability, T/C (second compound 3.16 µM, first compound 1 µM): 31.4%; viability, T/C (second compound 3.16 µM, first compound 3.16 µM): 37.9%; viability, T/C (second compound 3.16 µM, first compound 10 µM): 42.4%; viability, T/C (second compound 10 µM, first compound 0.0316 µM): 60.6%; viability, T/C (second compound 10 µM, first compound 0.1 µM): 54.1%; viability, T/C (second compound 10 µM, first compound 0.316 µM): 32.1%; viability, T/C (second compound 10 µM, first compound 1 µM): 31.3%; viability, T/C (second compound 10 µM, first compound 3.16 µM): 51.9%; viability, T/C (second compound 10 µM, first compound 10 µM): 30.1%

Q: How did the viability, T/C (compound 0.0316 µM) turn out when `Nc1ccccc1NC(=O)c1ccc(CNC(=O)OCc2cccnc2)cc1` was run?
A: Its viability, T/C is 91.6% and 84.4% and 104%.

Q: And the viability, T/C (compound 0.1 µM)?
A: The viability, T/C was 97.2% and 106% and 99.6%.

Q: What about the viability, T/C (compound 0.316 µM) of the same molecule?
A: Its viability, T/C is 105% and 112% and 109%.

Q: And the viability, T/C (compound 1 µM)?
A: Its viability, T/C is 98% and 113% and 100%.

Q: What about the viability, T/C (compound 3.16 µM) of the same molecule?
A: Its viability, T/C is 43.9% and 84.1% and 51.4%.

Q: What about the viability, T/C (compound 10 µM) of the same molecule?
A: The viability, T/C was 5.82% and 10.2% and 8.69%.

Q: What about the IC50 (curve of compound) of the same molecule?
A: Its IC50 is 2780 nM and 5370 nM and 3280 nM.
